In patent US20100152225A1, “HYDROGENATED PYRIDO [4,3-B] INDOLES SUCH AS DIMEBON FOR TREATING CANINE COGNITIVE DYSFUNCTION SYNDROME” (priority 2006, published 2010):
Entries after “also recorded” stand apart in the source; their conditions may differ.

Experiments:
Beagle Dogs [1] = assay: Observation of abnormal behavioral responses / behavioral toxicity during study; type: in vivo, Canine; details: 2, 6 and 20 mg/kg
Text: All dogs received veterinary examinations prior to initiation in the study. Over the course of the study, trained personnel recorded all adverse events and contacted the responsible veterinarian or study director when necessary.
The effect also appeared dependent on baseline activity level, the greater the baseline level the smaller the treatment effect.

Beagle Dogs [2] = assay: Day Night Activity (Actiwatch day-night activity rhythms); type: in vivo, Canine
Method: (§1) Dogs were weighed prior to study initiation. Capsules containing dimebon were prepared for each dog according to weight. The following doses of dimebon were used: 2, 6 and 20 mg/kg. Technicians not otherwise involved in the study prepared the capsules. During the control phase of the study, subjects were administered empty gelatine capsules. The test and control articles were administered to the dogs PO within meatballs of moist dog food once daily. Individual subjects were administered the capsule at the same time on each treatment day.
(§2) The design of the study consisted of four 7 day test blocks (a test block refers to the 3 day washout period combined with the 4 day treatment/testing period). The first test block was a control and no subject received treatment during those seven days. Subsequently, the study then followed a Latin-square design, in which all of the subjects were tested at all the three dose levels of the test article in a different order (see Table 3 below). To accomplish this, the twelve subjects were divided into six groups of two subjects balanced for sex and age to the extent possible.
At the start of the study, an Actiwatch collar was placed on each dog and the collar remained on for the study duration of the study. All behavioral testing followed previously established protocols. […]
To assess changes in activity linked to the treatment condition, hourly activity over a five hour period after dosing was calculated. The data were then analyzed with a repeated measures analysis of variance (ANOVA), with time post dosing (1-5 hours), treatment days (1-4 for each condition) and dose (control, 2, 6, and 20 mg/kg) as within subject variables. […] To examine day night-activity levels, day and night activity levels were calculated for each 24-hr period. The data were first analyzed with a repeated measures ANOVA, with dose (control, 2, 6, and 20 mg/kg), treatment day (1-4 for each condition), and phase (day and night) as within-subject variables. […]
Post-dose activity patterns and twenty-four hour activity rhythms were assessed using the Actiwatch method, which detects alterations in activity and changes in phase of the activity cycle as described previously (Siwak et al. (2003) Circadian Activity Rhythms in Dogs Vary with Age and Cognitive Status. Behavioral Neuroscience, 111:813-824). Briefly, general activity patterns were monitored for 28 continuous days using the Mini-Mitter® Actiwatch-16® activity monitoring system (Mini-Mitter Co., Inc., Bend, Oreg.) adapted for dogs. […]
The day/night activity data were analyzed with a repeated-measures ANOVA, with dose, wash-in day, and phase as within-subject variables and test order as a between-subject variable.

Beagle Dogs [3] = assay: Curiosity Test (exploratory behavior, open-field arena); type: in vivo, Canine; details: for rearing frequency, controls versus dose group: FIG. 10
Method: as §1, §2
After completing the control test block, each group received three doses of the test article in the order prescribed for that group. For each test block, subjects received their respective treatment for the first four days. On the fourth day of each test block, subjects were tested on the curiosity test twice; the first was one hour after article administration and the second was four hours after article administration. The remaining three days were considered washout days for each test block (Table 4).
For the curiosity test, each behavioral measure was analyzed individually using a repeated measures ANOVA with dose (control, 2, 6, and 20 mg/kg), test (first and second) as within-subject variables and order as a between-subject variable.
This is a test of exploratory behavior, which assesses both attention to environment and locomotor activity (Siwak et al. (2001) Effect of Age and Level of Cognitive Function on Spontaneous and Exploratory Behaviors in the Beagle Dog. Learning and Memory, 8:[…].). Subjects were placed in the open-field arena for a 10-minute period. Seven objects were placed in the arena and the subjects were permitted to freely explore the room and the objects.
The open field activity arena consisted of an empty test room (approximately 8′×10′) with strips of electrical tape applied to the floor in a grid pattern of rectangles to facilitate tracking. The floor of the test room was mopped prior to testing and between dogs to reduce olfactory cues from affecting testing. For tests conducted in the open field, the dogs were placed in the test room and their behavior was videotaped over a 10-minute period. On two of the test sessions, subjects were tested for 5 rather than 10 minutes. Accordingly, the data from those two dogs were not included in the initial analysis, which was carried out over all dose levels. However, all dogs were tested on the control and 20 mg/kg dose and a separate analysis was carried out comparing control and high dose treatments.
The movement pattern of the dog within the test room was recorded. In addition, keyboard keys were pressed to indicate the frequency of occurrence of the various behaviors including: sniffing, urinating, grooming, jumping, rearing, inactivity and vocalization. The software also provided a total measure of distance for loco-motor activity.
In addition to general activity, the interactions with the objects (picking-up, contacting, sniffing and urinating on the objects) were assessed and used as measures of exploratory behavior.

Beagle Dogs [4] = assay: General Activity Test (Actiwatch post-dose activity); type: in vivo, Canine; details: for activity as a function of dose and treatment day: FIG. 2, suggestion of a drug effect
Method: as §1, §2
At the start of the study, an Actiwatch collar was placed on each dog and the collar remained on for the study duration of the study. All behavioral testing followed previously established protocols. For behavioral tests conducted in the open field arena, data analyses were conducted using the DogAct behavioral software (CanCog Technologies Inc., Toronto, ON, Canada). Actiware-Rhythm® software was used to obtain activity counts for the day-night measure.
The Actiwatch data were analyzed to look at both changes in activity pattern temporally linked to treatment and changes in day/night activity.
To assess changes in activity linked to the treatment condition, hourly activity over a five hour period after dosing was calculated. The data were then analyzed with a repeated measures analysis of variance (ANOVA), with time post dosing (1-5 hours), treatment days (1-4 for each condition) and dose (control, 2, 6, and 20 mg/kg) as within subject variables. Test order served as a between subject variable in the initial analysis. To examine day night-activity levels, day and night activity levels were calculated for each 24-hr period. The data were first analyzed with a repeated measures ANOVA, with dose (control, 2, 6, and 20 mg/kg), treatment day (1-4 for each condition), and phase (day and night) as within-subject variables. Once again order served as a between-subject variable.
Post-dose activity patterns and twenty-four hour activity rhythms were assessed using the Actiwatch method, which detects alterations in activity and changes in phase of the activity cycle as described previously (Siwak et al. (2003) Circadian Activity Rhythms in Dogs Vary with Age and Cognitive Status. Behavioral Neuroscience, 111:813-824). Briefly, general activity patterns were monitored for 28 continuous days using the Mini-Mitter® Actiwatch-16® activity monitoring system (Mini-Mitter Co., Inc., Bend, Oreg.) adapted for dogs. The Actiwatch contained an activity sensory that was programmed to provide counts of total activity at 5 minute intervals. Putting the Actiwatch on a dog's collar allowed for recording uninterrupted patterns of activity and rest.
The first analysis of the Actiwatch data was intended to provide an overall picture of the post-dosing effect of the compound on behavioral activity. Accordingly, data for the 5-hour period following dosing was first segregated into 5 one-hour blocks. Thus, each subject's data for each treatment day consisted of 5 consecutive one-hour activity scores. The data were then analyzed with a repeated measures analysis of variance, with time post dosing (1-5 hours), treatment days (1-4 for each condition) and dose (control, 2, 6, and 20 mg/kg) as within subject variables. Test order served as between subject variables in the initial analysis. […]

dogs = dogs with CCDS; reported in FDA Consumer Magazine 2000; cited from earlier work
[5] = 2, 6 and 20 mg/kg, dihydrochloride

**Q.** With `Cc1ccc2c(c1)c1c(n2CCc2ccc(C)nc2)CCN(C)C1.Cl.Cl` [dimebon, 2,8-dimethyl-5-(2-(6-methyl-3-pyridyl)-ethyl)-2,3,4,5-tetrahydro-1H-pyrido(4,3-b)indole dihydrochloride] as the compound, how does the behavioral toxicity (Beagle Dogs [1]) read?
**A.** nor were there other indications of behavioral toxicity

**Q.** And the stereotypical behavior (Beagle Dogs [1])?
**A.** None of the dogs showed any stereotypical behavior

**Q.** And the abnormal behavioral response (Beagle Dogs [1]; dihydrochloride)?
**A.** None of these results, however, is indicative of an abnormal behavioral response; also recorded: does not cause any obvious abnormal behavioral responses

**Q.** What about the “ratio of day time activity to night time activity” value (Beagle Dogs [2]; 2 mg/kg, FIG. 6, did not achieve statistical significance) of the same compound?
**A.** highest

**Q.** What about the “day:night activity ratio” value (Beagle Dogs [2]; 20 mg/kg) of the same compound?
**A.** not altered

**Q.** What about the night time activity (Beagle Dogs [2]; 20 mg/kg) of the same compound?
**A.** increased night time activity

**Q.** What about the “day/night activity as a function of dose” value (Beagle Dogs [2]; control, 2, 6, 20 mg/kg, did not achieve statistical significance, p=0.158556) of the same compound?
**A.** overall dose-dependent increase in activity

**Q.** And the “change of rearing frequency over the two tests” value (“change of rearing frequency” below) (Beagle Dogs [3]; 2 mg/kg)?
**A.** decrease in rearing frequency

**Q.** What about the “object sniff frequency compared to control” value (Beagle Dogs [3]; 2 mg/kg, p=0.085660, FIG. 14) of the same compound?
**A.** lower occurrence of object sniffing

**Q.** What about the “change of rearing frequency” value (Beagle Dogs [3]; 6 mg/kg) of the same compound?
**A.** rearing frequency increased over the two tests

**Q.** What about the “change of rearing frequency” value (Beagle Dogs [3]; 20 mg/kg) of the same compound?
**A.** rearing frequency increased over the two tests

**Q.** And the exploratory behavior (Beagle Dogs [3]; 20 mg/kg)?
**A.** increase in exploratory behavior

**Q.** And the “frequency of object pickup” value (Beagle Dogs [3]; 20 mg/kg compared to 2 mg/kg, p=0.10445, FIG. 12)?
**A.** greater frequency of picking up objects

**Q.** What about the “locomotor activity on the second curiosity test” value (Beagle Dogs [3]; 20 mg/kg, 4 h after administration) of the same compound?
**A.** increased locomotor activity

**Q.** What about the “object contact duration compared to controls” value (Beagle Dogs [3]; 20 mg/kg, especially on the second test, FIG. 13) of the same compound?
**A.** increased contact

**Q.** What about the duration of action (Beagle Dogs [3]; 20 mg/kg, manifested by locomotor activity on second curiosity test and night time activity) of the same compound?
**A.** longest duration of action

**Q.** And the “change of inactivity over the two tests” value (Beagle Dogs [3]; 20 mg/kg, secondary analysis control vs high dose, interaction p=0.098076, FIG. 11)?
**A.** decreased over the two tests

**Q.** What about the “change of object sniff frequency over the two tests” value (Beagle Dogs [3]; 20 mg/kg, secondary analysis, interaction p=0.061260, FIG. 16) of the same compound?
**A.** object sniff frequency increased over the two tests

**Q.** And the “locomotor activity on first and second test” value (Beagle Dogs [3]; 20 mg/kg, tests 1 h and 4 h after administration, FIG. 8)?
**A.** activity was increased on both tests

**Q.** What about the “effect on most behaviors in the exploratory behavior test” value (Beagle Dogs [3]; 2, 6 and 20 mg/kg) of the same compound?
**A.** did not significantly affect most behaviors

**Q.** What about the “exploration (summary of exploratory behavior test)” value (Beagle Dogs [3]; [5]) of the same compound?
**A.** generally increased; also recorded: dose-dependent trend towards increased exploration

**Q.** And the “rearing frequency, dose effect, secondary analysis” value (Beagle Dogs [3]; control vs 20 mg/kg only, p=0.086315)?
**A.** marginally significant effect of dose

**Q.** What about the “locomotor activity, dose effect (ANOVA)” value (Beagle Dogs [3]; control, 2, 6, 20 mg/kg) of the same compound?
**A.** not significant

**Q.** What about the “urination frequency, effect of treatment” value (Beagle Dogs [3]; control, 2, 6, 20 mg/kg, FIG. 9) of the same compound?
**A.** no effects of treatment were found

**Q.** What about the “rearing frequency, dose effect (ANOVA)” value (Beagle Dogs [3]; control, 2, 6, 20 mg/kg, p=0.000846) of the same compound?
**A.** significant dose effect

**Q.** And the “object contact duration, dose effect (ANOVA)” value (Beagle Dogs [3]; control, 2, 6, 20 mg/kg, p=0.001384)?
**A.** significant dose effect

**Q.** What about the “object sniff frequency, dose effect (ANOVA)” value (Beagle Dogs [3]; control, 2, 6, 20 mg/kg, p=0.056856) of the same compound?
**A.** marginally significant effect of dose

**Q.** What about the “object pick-up, dose effect (ANOVA)” value (Beagle Dogs [3]; control, 2, 6, 20 mg/kg, p=0.079968) of the same compound?
**A.** marginally significant effect of dose

**Q.** And the “rearing frequency, controls versus dose group” value (Beagle Dogs [3]; high dose group, p=0.025826)?
**A.** controls showing significantly less rearing

**Q.** What about the “rearing frequency, controls versus dose group” value (Beagle Dogs [3]; low dose group, p=0.0258) of the same compound?
**A.** controls showing significantly less rearing

**Q.** What about the “activity at 5 hours post-dosing compared to control” value (Beagle Dogs [4]; 6 mg/kg PO once daily, FIG. 1) of the same compound?
**A.** generally higher

**Q.** What about the “activity as a function of dose and treatment day” value (Beagle Dogs [4]; 6 mg/kg) of the same compound?
**A.** increased activity

**Q.** And the “activity at 5 hours post-dosing compared to control” value (Beagle Dogs [4]; 20 mg/kg PO once daily, FIG. 1)?
**A.** generally higher

**Q.** What about the “activity as a function of dose and treatment day” value (Beagle Dogs [4]; 20 mg/kg) of the same compound?
**A.** increased activity

**Q.** And the “behavioral activity (summary)” value (Beagle Dogs [4]; [5])?
**A.** trend towards an increase in activity with an increase in dosage; also recorded: moderate increase in behavioral activity

**Q.** What about the “total activity as a function of dose” value (Beagle Dogs [4]; control, 2, 6, 20 mg/kg, FIG. 3, not statistically significant, p=0.192360) of the same compound?
**A.** dose-dependent increase in activity

**Q.** What about the “decrease of activity with time following treatment” value (Beagle Dogs [4]; two highest dose levels, FIG. 1) of the same compound?
**A.** the decrease is smaller

**Q.** For `C#CCN(C)[C@H](C)Cc1ccccc1` [Anipryl®], which “fraction of cases in which it does not work” value (dogs) is on record?
**A.** about ⅓
